Tested on: MV-4-11 cells
Experiment: Gene expression microarray analysis (Affymetrix PrimeView) and GSEA
Format: cell-based, human
Parameters: RFU PODN (11730768_x_at) / Fold change /veh PODN (11730768_x_at) / RFU LINC00158 (11744669_a_at) / Fold change /veh LINC00158 (11744669_a_at) / RFU DUSP10 (11751237_a_at) / Fold change /veh DUSP10 (11751237_a_at) / RFU ID3 (11757404_x_at) / Fold change /veh ID3 (11757404_x_at) / RFU PLEKHG5 (11737974_s_at) / Fold change /veh PLEKHG5 (11737974_s_at) / RFU LRRC4B (11730491_at) / Fold change /veh LRRC4B (11730491_at) / RFU GIMAP4 (11747438_a_at) / Fold change /veh GIMAP4 (11747438_a_at) / RFU KRT8 (11758183_x_at) / Fold change /veh KRT8 (11758183_x_at) / RFU CNN1 (11734310_a_at) / Fold change /veh CNN1 (11734310_a_at) / RFU VPS37D (11726825_at) / Fold change /veh VPS37D (11726825_at) / RFU C10orf10 (11716522_x_at) / Fold change /veh C10orf10 (11716522_x_at) / RFU KIR2DL2 /// KIR2DL4 /// KIR2DL5A /// KIR2DL5B /// KIR2DS1 /// KIR2DS2 /// KIR2DS3 /// KIR2DS4 /// KIR3DL3 /// KIR3DL3 /// KIR3DS1 (11738374_at) / Fold change /veh KIR2DL2 /// KIR2DL4 /// KIR2DL5A /// KIR2DL5B /// KIR2DS1 /// KIR2DS2 /// KIR2DS3 /// KIR2DS4 /// KIR3DL3 /// KIR3DL3 /// KIR3DS1 (11738374_at) / RFU C1QL1 (11718748_at) / Fold change /veh C1QL1 (11718748_at) / RFU TMPRSS4 (11747572_a_at) / Fold change /veh TMPRSS4 (11747572_a_at) / RFU HAMP (11756126_x_at) / Fold change /veh HAMP (11756126_x_at) / RFU RNFT2 (11725882_a_at) / Fold change /veh RNFT2 (11725882_a_at) / RFU NR4A2 (11747474_a_at) / Fold change /veh NR4A2 (11747474_a_at) / RFU ABCC12 (11746883_a_at) / Fold change /veh ABCC12 (11746883_a_at) / RFU TMEM136 (11760407_x_at) / Fold change /veh TMEM136 (11760407_x_at) / RFU CLDN22 /// WWC2 (11732394_at) / Fold change /veh CLDN22 /// WWC2 (11732394_at) / RFU HLA-DPB1 (11760878_x_at) / Fold change /veh HLA-DPB1 (11760878_x_at) / RFU SPINT1 (11716480_a_at) / Fold change /veh SPINT1 (11716480_a_at) / RFU GAP43 (11754022_s_at) / Fold change /veh GAP43 (11754022_s_at) / RFU A4GNT (11735810_at) / Fold change /veh A4GNT (11735810_at) / RFU PRB3 (11715151_x_at) / Fold change /veh PRB3 (11715151_x_at) / RFU TUBB4B (11761932_at) / Fold change /veh TUBB4B (11761932_at) / RFU CAPN14 (11732068_a_at) / Fold change /veh CAPN14 (11732068_a_at) / RFU TMCC2 (11721928_a_at) / Fold change /veh TMCC2 (11721928_a_at) / RFU IRGQ (11745062_a_at) / Fold change /veh IRGQ (11745062_a_at) / RFU FAM174B (11720279_a_at) / Fold change /veh FAM174B (11720279_a_at) / RFU TMPRSS4 (11748680_a_at) / Fold change /veh TMPRSS4 (11748680_a_at) / RFU FAM212B (11763350_a_at) / Fold change /veh FAM212B (11763350_a_at) / RFU PLEKHG5 (11743358_a_at) / Fold change /veh PLEKHG5 (11743358_a_at) / RFU ZSCAN30 (11745921_a_at) / Fold change /veh ZSCAN30 (11745921_a_at) / RFU CMKLR1 (11741424_a_at) / Fold change /veh CMKLR1 (11741424_a_at) / RFU LOC101060620 /// MAPK8IP1 (11723275_at) / Fold change /veh LOC101060620 /// MAPK8IP1 (11723275_at) / RFU SPTSSB (11747773_x_at) / Fold change /veh SPTSSB (11747773_x_at) / RFU PRSS12 (11739890_at) / Fold change /veh PRSS12 (11739890_at) / RFU BIN1 (11741810_x_at) / Fold change /veh BIN1 (11741810_x_at) / RFU WNT11 (11732464_a_at) / Fold change /veh WNT11 (11732464_a_at) / RFU C10orf10 (11716521_a_at) / Fold change /veh C10orf10 (11716521_a_at) / RFU C5orf56 (11738089_at) / Fold change /veh C5orf56 (11738089_at) / RFU CYB561 (11721691_x_at) / Fold change /veh CYB561 (11721691_x_at) / RFU ANKRD19P (11752326_a_at) / Fold change /veh ANKRD19P (11752326_a_at) / RFU OR2T12 /// OR2T33 /// OR2T8 (11738714_s_at) / Fold change /veh OR2T12 /// OR2T33 /// OR2T8 (11738714_s_at) / RFU VCAN (11748164_a_at) / Fold change /veh VCAN (11748164_a_at) / RFU JSRP1 (11732532_at) / Fold change /veh JSRP1 (11732532_at) / RFU KRTAP10-11 (11738290_x_at) / Fold change /veh KRTAP10-11 (11738290_x_at) / RFU MYO3A (11730013_a_at) / Fold change /veh MYO3A (11730013_a_at) / RFU EBF3 (11725865_a_at) / Fold change /veh EBF3 (11725865_a_at) / RFU CAMK2N1 (11719241_x_at) / Fold change /veh CAMK2N1 (11719241_x_at) / RFU C5orf56 (11738088_a_at) / Fold change /veh C5orf56 (11738088_a_at) / RFU OLFML3 (11715873_a_at) / Fold change /veh OLFML3 (11715873_a_at) / RFU LOC100653217 /// NTM (11731650_a_at) / Fold change /veh LOC100653217 /// NTM (11731650_a_at) / RFU MAPK11 (11762145_a_at) / Fold change /veh MAPK11 (11762145_a_at) / RFU FIZ1 (11724087_x_at) / Fold change /veh FIZ1 (11724087_x_at) / RFU OASL (11726364_x_at) / Fold change /veh OASL (11726364_x_at) / RFU SOX15 (11748057_x_at) / Fold change /veh SOX15 (11748057_x_at) / RFU CD79A (11719716_a_at) / Fold change /veh CD79A (11719716_a_at) / RFU HIST1H1D (11736915_at) / Fold change /veh HIST1H1D (11736915_at) / RFU CASKIN2 (11723855_a_at) / Fold change /veh CASKIN2 (11723855_a_at) / RFU LOC730098 (11760151_x_at) / Fold change /veh LOC730098 (11760151_x_at) / RFU OR4N2 (11742367_at) / Fold change /veh OR4N2 (11742367_at) / RFU PRRT2 (11749266_a_at) / Fold change /veh PRRT2 (11749266_a_at) / RFU SNX32 (11753110_a_at) / Fold change /veh SNX32 (11753110_a_at) / RFU CDHR5 (11726645_a_at) / Fold change /veh CDHR5 (11726645_a_at) / RFU RCAN1 (11760418_a_at) / Fold change /veh RCAN1 (11760418_a_at) / RFU FAM167A (11723789_a_at) / Fold change /veh FAM167A (11723789_a_at) / RFU FAM26E (11764081_at) / Fold change /veh FAM26E (11764081_at) / RFU ISYNA1 (11749810_s_at) / Fold change /veh ISYNA1 (11749810_s_at) / RFU ACY1 (11761880_at) / Fold change /veh ACY1 (11761880_at) / RFU 11764098_at / Fold change /veh 11764098_at / RFU SAMD14 (11745864_x_at) / Fold change /veh SAMD14 (11745864_x_at) / RFU NPB (11741838_a_at) / Fold change /veh NPB (11741838_a_at) / RFU TMPRSS6 (11731388_a_at) / Fold change /veh TMPRSS6 (11731388_a_at) / RFU KRTAP10-2 (11738614_at) / Fold change /veh KRTAP10-2 (11738614_at) / RFU ARHGAP8 /// PRR5-ARHGAP8 (11727945_x_at) / Fold change /veh ARHGAP8 /// PRR5-ARHGAP8 (11727945_x_at) / RFU KRTAP5-7 /// NADSYN1 (11734609_at) / Fold change /veh KRTAP5-7 /// NADSYN1 (11734609_at) / RFU RASL12 (11751679_a_at) / Fold change /veh RASL12 (11751679_a_at) / RFU CDKN2B (11736163_a_at) / Fold change /veh CDKN2B (11736163_a_at) / RFU PRF1 (11729649_at) / Fold change /veh PRF1 (11729649_at) / RFU, ZNF638 /// ZNF638-IT1 / Fold change vs veh, ZNF638 /// ZNF638-IT1 / RFU, PANK3 / Fold change vs veh, PANK3 / RFU, SH3YL1 / Fold change vs veh, SH3YL1 / RFU, ZEB2 / Fold change vs veh, ZEB2 / RFU, NRIP1 / Fold change vs veh, NRIP1 / RFU, PTTG1IP / Fold change vs veh, PTTG1IP / RFU, CAPN2 / Fold change vs veh, CAPN2 / RFU, MED14 / Fold change vs veh, MED14 / RFU, SNORA58 / Fold change vs veh, SNORA58 / RFU, C1orf63 / Fold change vs veh, C1orf63 / RFU, LRRFIP1 / Fold change vs veh, LRRFIP1 / RFU, NDUFAF7 / Fold change vs veh, NDUFAF7 / RFU, SLC12A2 / Fold change vs veh, SLC12A2 / RFU, IBTK / Fold change vs veh, IBTK / RFU, ESF1 / Fold change vs veh, ESF1 / Fold change vs veh, TMEM50B / RFU, TAOK1 / Fold change vs veh, TAOK1 / RFU, ACBD3 / Fold change vs veh, ACBD3 / RFU, TMA16 / Fold change vs veh, TMA16 / RFU, RWDD3 / Fold change vs veh, RWDD3 / RFU, BCAT1 / Fold change vs veh, BCAT1 / RFU, EDEM3 / Fold change vs veh, EDEM3 / RFU, TMEM33 / Fold change vs veh, TMEM33 / RFU, WDR75 / Fold change vs veh, WDR75 / RFU, AHCTF1 / Fold change vs veh, AHCTF1 / RFU, TFRC / Fold change vs veh, TFRC / RFU, ZDHHC17 / Fold change vs veh, ZDHHC17 / RFU, NOM1 / Fold change vs veh, NOM1 / RFU, ARL8B / Fold change vs veh, ARL8B / RFU, ZBTB11 / Fold change vs veh, ZBTB11 / RFU, TAMM41 / Fold change vs veh, TAMM41 / RFU, KIAA1704 /// LOC100996395 / Fold change vs veh, KIAA1704 /// LOC100996395 / RFU, ING1 / Fold change vs veh, ING1 / RFU, TRMT61B / Fold change vs veh, TRMT61B / RFU, FUBP3 / Fold change vs veh, FUBP3 / RFU, TP53 / Fold change vs veh, TP53 / RFU, TNKS2 / Fold change vs veh, TNKS2 / RFU, ZFP14 / Fold change vs veh, ZFP14 / RFU, ACTR2 / Fold change vs veh, ACTR2 / RFU, PPP3R1 / Fold change vs veh, PPP3R1 / RFU, PIK3R1 / Fold change vs veh, PIK3R1 / RFU, HNRNPA1 / Fold change vs veh, HNRNPA1 / RFU, RNF170 / Fold change vs veh, RNF170 / RFU, ZNF28 / Fold change vs veh, ZNF28 / RFU, RNGTT / Fold change vs veh, RNGTT / RFU, OGT / Fold change vs veh, OGT / RFU, BRD1 / Fold change vs veh, BRD1 / RFU, MARS / Fold change vs veh, MARS / RFU, ZNF655 / Fold change vs veh, ZNF655 / RFU, FAHD1 / Fold change vs veh, FAHD1 / RFU, BDP1 / Fold change vs veh, BDP1 / RFU, LRRCC1 / Fold change vs veh, LRRCC1 / RFU, ARID1A / Fold change vs veh, ARID1A / RFU, ZNF146 / Fold change vs veh, ZNF146 / RFU, ZNF330 / Fold change vs veh, ZNF330 / RFU, GPN3 / Fold change vs veh, GPN3 / RFU, C9orf123 / Fold change vs veh, C9orf123 / RFU, N4BP2L2 / Fold change vs veh, N4BP2L2 / RFU, ARFIP1 / Fold change vs veh, ARFIP1 / RFU, FAM179B / Fold change vs veh, FAM179B / RFU, BCL10 / Fold change vs veh, BCL10 / RFU, UHRF1BP1L / Fold change vs veh, UHRF1BP1L / RFU, BET1 / Fold change vs veh, BET1 / RFU, CNOT2 / Fold change vs veh, CNOT2 / RFU, ZNF268 / Fold change vs veh, ZNF268 / Fold change vs veh, ZNF507 / RFU, DGCR2 / Fold change vs veh, DGCR2 / RFU, WDSUB1 / Fold change vs veh, WDSUB1 / Fold change vs veh, HSP90B1 /// MIR3652 / RFU, ADSS / Fold change vs veh, ADSS / RFU, GK / Fold change vs veh, GK / RFU, ZNF148 / Fold change vs veh, ZNF148 / RFU, TAF9 / Fold change vs veh, TAF9 / RFU, SLC1A5 / Fold change vs veh, SLC1A5 / RFU, SLMO2 / Fold change vs veh, SLMO2 / RFU, ABCC4 / Fold change vs veh, ABCC4 / RFU, LOC101060439 /// RAP1B / Fold change vs veh, LOC101060439 /// RAP1B / RFU, RFX7 / Fold change vs veh, RFX7 / RFU, GTPBP10 / Fold change vs veh, GTPBP10 / RFU, CNEP1R1 / Fold change vs veh, CNEP1R1 / RFU, BIVM-ERCC5 /// ERCC5 / Fold change vs veh, BIVM-ERCC5 /// ERCC5 / RFU, ILF3 / Fold change vs veh, ILF3 / RFU 11762660_at / Fold change /veh 11762660_at / RFU VCAN (11757783_s_at) / Fold change /veh VCAN (11757783_s_at) / RFU DDX43 (11728927_at) / Fold change /veh DDX43 (11728927_at) / RFU KRT8 (11758188_x_at) / Fold change /veh KRT8 (11758188_x_at) / RFU NKD1 (11759106_at) / Fold change /veh NKD1 (11759106_at) / RFU SRD5A1 (11742802_a_at) / Fold change /veh SRD5A1 (11742802_a_at) / RFU TPSAB1 /// TPSB2 (11721975_s_at) / Fold change /veh TPSAB1 /// TPSB2 (11721975_s_at) / RFU GSTM3 (11746129_a_at) / Fold change /veh GSTM3 (11746129_a_at) / RFU IL23R (11737362_x_at) / Fold change /veh IL23R (11737362_x_at) / RFU TMEM51 (11727254_a_at) / Fold change /veh TMEM51 (11727254_a_at) / RFU PIWIL2 (11732686_x_at) / Fold change /veh PIWIL2 (11732686_x_at) / RFU ORM1 (11744905_x_at) / Fold change /veh ORM1 (11744905_x_at) / RFU CCDC152 (11743942_at) / Fold change /veh CCDC152 (11743942_at) / RFU ECM1 (11717891_a_at) / Fold change /veh ECM1 (11717891_a_at) / RFU IL23R (11748794_a_at) / Fold change /veh IL23R (11748794_a_at) / RFU TNFAIP8L3 (11732012_x_at) / Fold change /veh TNFAIP8L3 (11732012_x_at) / RFU MBOAT4 (11741988_at) / Fold change /veh MBOAT4 (11741988_at) / RFU 11764193_at / Fold change /veh 11764193_at / RFU TMEM53 (11763286_at) / Fold change /veh TMEM53 (11763286_at) / RFU MAGEB2 (11727129_at) / Fold change /veh MAGEB2 (11727129_at) / RFU TMEM200A (11744735_a_at) / Fold change /veh TMEM200A (11744735_a_at) / RFU CCDC152 (11751479_a_at) / Fold change /veh CCDC152 (11751479_a_at) / RFU FAM211A (11726209_a_at) / Fold change /veh FAM211A (11726209_a_at) / RFU RGS16 (11746705_a_at) / Fold change /veh RGS16 (11746705_a_at) / RFU VCAN (11755009_s_at) / Fold change /veh VCAN (11755009_s_at) / RFU RHOB (11743442_s_at) / Fold change /veh RHOB (11743442_s_at) / RFU RGS16 (11720943_a_at) / Fold change /veh RGS16 (11720943_a_at) / RFU RGS16 (11720944_at) / Fold change /veh RGS16 (11720944_at) / RFU, VPS4B / Fold change vs veh, VPS4B / RFU, CREB1 / Fold change vs veh, CREB1 / RFU, DNAJC13 / Fold change vs veh, DNAJC13 / RFU, GNAQ / Fold change vs veh, GNAQ / RFU, CDK5R1 / Fold change vs veh, CDK5R1 / RFU, ZRANB3 / Fold change vs veh, ZRANB3 / RFU, CUL4A / Fold change vs veh, CUL4A / RFU, CCNY / Fold change vs veh, CCNY / RFU, UFL1 / Fold change vs veh, UFL1 / RFU, COG3 / Fold change vs veh, COG3 / RFU, DIAPH2 / Fold change vs veh, DIAPH2 / RFU, SKA2 / Fold change vs veh, SKA2 / RFU, AFF3 / Fold change vs veh, AFF3 / RFU, LMF1 / Fold change vs veh, LMF1 / RFU, IPO11 / Fold change vs veh, IPO11 / RFU, DFFB / Fold change vs veh, DFFB / RFU, FOXP1 / Fold change vs veh, FOXP1 / RFU, CARD8 / Fold change vs veh, CARD8 / RFU, STRN3 / Fold change vs veh, STRN3 / RFU, ADK / Fold change vs veh, ADK / RFU, RASSF2 / Fold change vs veh, RASSF2 / RFU, WIPF1 / Fold change vs veh, WIPF1 / RFU, LARP1B / Fold change vs veh, LARP1B / RFU, RASA1 / Fold change vs veh, RASA1 / RFU, RB1 / Fold change vs veh, RB1 / RFU, PPFIA1 / Fold change vs veh, PPFIA1 / RFU, MAT2A / Fold change vs veh, MAT2A / RFU, CCT5 / Fold change vs veh, CCT5 / RFU, WDR92 / Fold change vs veh, WDR92 / RFU, CUX1 / Fold change vs veh, CUX1 / RFU, TTC7A / Fold change vs veh, TTC7A / RFU, TMEM135 / Fold change vs veh, TMEM135 / RFU, DEPTOR / Fold change vs veh, DEPTOR / RFU, CPM / Fold change vs veh, CPM / RFU, DNAJB6 / Fold change vs veh, DNAJB6 / RFU, CACNA2D3 / Fold change vs veh, CACNA2D3 / RFU, DTX4 / Fold change vs veh, DTX4 / RFU, TFCP2 / Fold change vs veh, TFCP2 / RFU, GMCL1 /// GMCL1P1 / Fold change vs veh, GMCL1 /// GMCL1P1 / RFU, AEBP2 / Fold change vs veh, AEBP2 / RFU, SNHG1 /// SNORD22 /// SNORD25 /// SNORD26 /// SNORD27 /// SNORD28 /// SNORD29 /// SNORD31 / Fold change vs veh, SNHG1 /// SNORD22 /// SNORD25 /// SNORD26 /// SNORD27 /// SNORD28 /// SNORD29 /// SNORD31 / Fold change (Aza/veh), C12orf56 (ProbeSet 11735607_a_at) / Fold change (ACY-1035/veh), C12orf56 (ProbeSet 11735607_a_at) / Fold change (Aza/veh), FGFR1OP (ProbeSet 11751329_s_at) / Fold change (ACY-1035/veh), FGFR1OP (ProbeSet 11751329_s_at) / Fold change (Aza/veh), VPS36 (ProbeSet 11739960_a_at) / Fold change (ACY-1035/veh), VPS36 (ProbeSet 11739960_a_at) / RFU SYPL1 (11715823_x_at) / Fold change /veh SYPL1 (11715823_x_at) / RFU IGFBP7 (11715501_s_at) / Fold change /veh IGFBP7 (11715501_s_at) / RFU REEP3 (11722064_at) / Fold change /veh REEP3 (11722064_at) / RFU IGLL1 (11728026_x_at) / Fold change /veh IGLL1 (11728026_x_at): dose or concentration left out as unconfirmed
Details: MV-4-11 cells, 48 hours

Nc1ccc(-c2cccs2)cc1NC(=O)c1ccc2c(c1)cc(C1CC1)n2CCN1CCOCC1 [ACY-1035]
Fold change /veh KRT8 (11758183_x_at): 1.06
